# Experimental data reported in US20240041042A1, “1-(PYRIDYL)-5-AZINYLPYRAZOLE DERIVATIVES, AND THEIR USE FOR CONTROL OF UNDESIRED PLANT GROWTH” (Bayer Aktiengesellschaft, priority 2020, published 2024).
# Columns and labels:
# Format in all cases: in vivo
# [1] = system: Abutilon theophrasti (ABUTH); experiment: Post-emergence herbicidal action against ABUTH; conditions: visual rating about 3 weeks after treatment vs untreated controls (100% = plants have died, 0% = like control plants)
# How it was run: (§1)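 Post-emergence greenhouse spray, one-leaf stage, 600 l/ha water plus 0.5% additive; WP or EC formulations; application rates 320 g/ha or lower. Visual % damage vs untreated controls at ~3 weeks.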
# [2] = system: Pharbitis purpurea (PHBPU); experiment: Pre-emergence herbicidal action against PHBPU
# How it was run: (§2)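 Greenhouse pot trial: seeds sown, soil-covered, sprayed before emergence with compound in water (0.5% additive; 600 l/ha; ≤320 g/ha). Scoring visual, ~3 weeks, 0–100% scale vs untreated.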
# [3] = system: Echinochloa crus-galli (ECHCG); experiment: Pre-emergence herbicidal action against ECHCG
# How it was run: as §2
# [4] = system: Amaranthus retroflexus (AMARE); experiment: Post-emergence herbicidal action against AMARE
# How it was run: as §1
# [5] = system: Matricaria inodora (MATIN); experiment: Pre-emergence herbicidal action against MATIN
# How it was run: as §2
# Lolium rigidum (LOLRI) = experiment: Pre-emergence herbicidal action against LOLRI
# How it was run: as §2
# [6] = system: Verconica persica (VERPE); experiment: Pre-emergence herbicidal action against VERPE
# How it was run: as §2
# [7] = system: Verconica persica (VERPE); experiment: Post-emergence herbicidal action against VERPE
# How it was run: as §1
# Viola tricolor (VIOTR) = experiment: Post-emergence herbicidal action against VIOTR
# How it was run: as §1
# [8] = system: Alopecurus myosuroides (ALOMY); experiment: Pre-emergence herbicidal action against ALOMY; conditions: scored visually after about 3 weeks, 100% = plants have died
# How it was run: as §2
# [9] = 320 g/ha, visual rating about 3 weeks after treatment
# [10] = 80 g/ha, visual rating about 3 weeks after treatment vs untreated controls (100% = plants have died, 0% = like control plants)
Structure (SMILES),Post-emergence action against ABUTH in % ([1]; 80 g/ha) [%],Post-emergence action against ABUTH in % ([1]; 320 g/ha) [%],Pre-emergence action against PHBPU in % ([2]; dosage 80 g/ha) [%],Pre-emergence action against PHBPU in % ([2]; dosage 320 g/ha) [%],Pre-emergence action against ECHCG in % ([3]; dosage 80 g/ha) [%],Pre-emergence action against ECHCG in % ([3]; dosage 320 g/ha) [%],"Post-emergence action against AMARE in % [4, 9] [%]",Pre-emergence action against MATIN in % ([5]; dosage 80 g/ha) [%],Pre-emergence action against MATIN in % ([5]; dosage 320 g/ha) [%],Pre-emergence action against LOLRI in % (Lolium rigidum (LOLRI); dosage 80 g/ha) [%],Pre-emergence action against LOLRI in % (Lolium rigidum (LOLRI); dosage 320 g/ha) [%],Pre-emergence action against VERPE in % ([6]; dosage 80 g/ha) [%],Pre-emergence action against VERPE in % ([6]; dosage 320 g/ha) [%],"Post-emergence action against VERPE in % ([7]; 320 g/ha, VERPE) [%]",Post-emergence action against VERPE in % ([7]; dosage 80 g/ha) [%],Post-emergence action against VIOTR in % (Viola tricolor (VIOTR); 80 g/ha) [%],Post-emergence action against VIOTR in % (Viola tricolor (VIOTR); 320 g/ha) [%],Pre-emergence action against ALOMY ([8]; 80 g/ha) [%],Pre-emergence action against ALOMY ([8]; 320 g/ha) [%],"Post-emergence action against AMARE in % [4, 10] [%]"
COC(=O)C(C)COC(=O)[C@@H](C)Oc1nn(-c2ccccn2)c(-c2cncc(F)c2)c1Br (stereo partly shown) [Example I-188],80,80,80,90,100,100,80,90,90,100,100,100,100,90,80,80,80,90,100,
COC(=O)C(C)NC(=O)[C@@H](C)Oc1nn(-c2ccccn2)c(-c2cncc(F)c2)c1Br (stereo partly shown) [Example I-190],80,80,90,90,90,100,80,90,90,100,100,80,100,90,80,80,90,80,90,
COC(=O)[C@H](C)COC(=O)COc1nn(-c2ccccn2)c(-c2cncc(F)c2)c1Cl [Example I-192],,80,90,90,90,100,80,90,90,80,100,,90,80,80,,80,90,90,80
CCOC(=O)COc1nn(-c2nc(F)ccc2F)c(-c2cncc(F)c2)c1Br [Example I-193],80,80,80,90,90,100,80,90,90,,90,80,90,80,80,80,90,,90,80
COC(=O)[C@@H](C)COC(=O)COc1nn(-c2ccccn2)c(-c2cncc(F)c2)c1Br [Example I-194],,80,90,90,80,100,90,90,90,90,100,,90,80,,80,80,80,100,80
COC(=O)CCOC(=O)[C@@H](C)Oc1nn(-c2ccccn2)c(-c2cncc(F)c2)c1Cl [Example I-196],80,80,90,90,90,90,80,90,90,100,100,90,100,90,80,80,80,,90,80
